PubChem BioAssay AID248 (DTP/NCI, 2004)
Where “and” joins values, the source holds several entries; their conditions need not be identical. Identical values can stand only once. Inconclusive results and toxic doses are left out. No stated cut-off is given here; in the data, active means T/C of 150% or more; inactive means T/C below 125%.

Tested on: L1210 leukemia ip in BDF1 mice, survival T/C
Experiment: NCI In Vivo Anticancer Drug Screen. Data for tumor model L1210 Leukemia (intraperitoneal) in B6D2F1 (BDF1) mice
Conditions: endpoint: mean survival time, higher = longer survival
Outline: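 Read-out is survival time, reported as the treated-group measurement over the vehicle-control measurement.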

[1] = dose: 50.0 mg/kg/injection, schedule: Q01DX009 (ip), vehicle: saline
[2] = dose: 100.0 mg/kg/injection, schedule: Q04DX003 (ip), vehicle: saline
[3] = dose: 100.0 mg/kg/injection, schedule: Q01DX001 (ip), vehicle: saline
[4] = dose: 200.0 mg/kg/injection, schedule: Q01DX001 (ip), vehicle: saline

Measured: T/C

CCCNCCN
inactive: [1] 98 % of control | dose: 100.0 mg/kg/injection, schedule: Q01DX009 (ip), vehicle: saline 102 % of control | [2] 97 % of control | dose: 200.0 mg/kg/injection, schedule: Q04DX003 (ip), vehicle: saline 99 % of control

O=C1c2ccccc2C(=O)N1c1c[nH]c(=O)[nH]c1=O
inactive: dose: 25.0 mg/kg/injection, schedule: Q04DX003 (ip), vehicle: Klucel (hydroxypropylcellulose) (HPC) 95 % of control | dose: 50.0 mg/kg/injection, schedule: Q04DX003 (ip), vehicle: Klucel (hydroxypropylcellulose) (HPC) 93 % of control

Cc1cc(NC(=O)COc2ccc([N+](=O)[O-])cc2Cl)ccc1S(=O)(=O)F
inactive: dose: 100.0 mg/kg/injection, schedule: Q01DX001 (ip), vehicle: saline with Tween-80 102 % of control | dose: 200.0 mg/kg/injection, schedule: Q01DX001 (ip), vehicle: saline with Tween-80 98 % of control | dose: 400.0 mg/kg/injection, schedule: Q01DX001 (ip), vehicle: saline with Tween-80 93 % of control

CC(OCCO)C1CCC2C3CCC4=CC(=O)CCC4(C)C3C(O)C(C)C12C (stereo unspecified)
inactive: dose: 50.0 mg/kg/injection, schedule: Q01DX001 (sc), vehicle: steriod suspending solution 102 % of control | dose: 100.0 mg/kg/injection, schedule: Q01DX001 (sc), vehicle: steriod suspending solution 100 % of control | dose: 200.0 mg/kg/injection, schedule: Q01DX001 (sc), vehicle: steriod suspending solution 110 % of control | dose: 400.0 mg/kg/injection, schedule: Q01DX001 (sc), vehicle: steriod suspending solution 102 % of control

N#C/C(=C\c1ccc(-c2ccccc2)cc1)c1ccc(Cl)cc1
inactive: dose: 3.13 mg/kg/injection, schedule: Q01DX009 (ip), vehicle: saline with Tween-80 98 % of control | dose: 6.25 mg/kg/injection, schedule: Q01DX009 (ip), vehicle: saline with Tween-80 92 % of control | dose: 12.5 mg/kg/injection, schedule: Q01DX009 (ip), vehicle: saline with Tween-80 93 % of control and 87 % of control | dose: 12.5 mg/kg/injection, schedule: Q04DX003 (ip), vehicle: saline with Tween-80 95 % of control | dose: 25.0 mg/kg/injection, schedule: Q04DX003 (ip), vehicle: saline with Tween-80 95 % of control | dose: 50.0 mg/kg/injection, schedule: Q04DX003 (ip), vehicle: saline with Tween-80 93 % of control

CCOC(CN(Cc1ccc(OCc2ccccc2)c(OC)c1)S(=O)(=O)c1ccc(C)cc1)OCC
inactive: dose: 25.0 mg/kg/injection, schedule: Q01DX009 (ip), vehicle: water 102 % of control | dose: 50.0 mg/kg/injection, schedule: Q01DX009 (ip), vehicle: water 91 % of control | dose: 100.0 mg/kg/injection, schedule: Q01DX009 (ip), vehicle: water 105 % of control | dose: 200.0 mg/kg/injection, schedule: Q01DX009 (ip), vehicle: water 102 % of control | dose: 400.0 mg/kg/injection, schedule: Q01DX009 (ip), vehicle: water 100 % of control

CC(C)(C)NC(=O)NCc1cccc(Cl)c1
inactive: dose: 100.0 mg/kg/injection, schedule: Q04DX002 (ip), vehicle: Klucel (hydroxypropylcellulose) (HPC) 100 % of control | dose: 200.0 mg/kg/injection, schedule: Q04DX002 (ip), vehicle: Klucel (hydroxypropylcellulose) (HPC) 107 % of control | dose: 400.0 mg/kg/injection, schedule: Q04DX002 (ip), vehicle: Klucel (hydroxypropylcellulose) (HPC) 96 % of control

CON(C)C(=O)CCN1CC1
inactive: dose: 10.0 mg/kg/injection, schedule: Q01DX009 (ip), vehicle: saline 97 % of control | dose: 20.0 mg/kg/injection, schedule: Q01DX009 (ip), vehicle: saline 94 % of control | dose: 20.0 mg/kg/injection, schedule: Q04DX003 (ip), vehicle: saline 100 % of control | dose: 40.0 mg/kg/injection, schedule: Q01DX009 (ip), vehicle: saline 97 % of control | dose: 40.0 mg/kg/injection, schedule: Q04DX003 (ip), vehicle: saline 100 % of control | dose: 80.0 mg/kg/injection, schedule: Q04DX003 (ip), vehicle: saline 104 % of control | [2] 94 % of control

CCOC(OCC)c1nc(N)nc(N)c1-c1ccc(Cl)c(Cl)c1
inactive: dose: 11.0 mg/kg/injection, schedule: Q01DX009 (ip), vehicle: other 98 % of control | dose: 22.5 mg/kg/injection, schedule: Q01DX009 (ip), vehicle: other 101 % of control | dose: 45.0 mg/kg/injection, schedule: Q01DX009 (ip), vehicle: other 101 % of control | dose: 89.0 mg/kg/injection, schedule: Q01DX009 (ip), vehicle: saline 102 % of control | dose: 90.0 mg/kg/injection, schedule: Q01DX009 (ip), vehicle: other 115 % of control | [3] 100 % of control | dose: 134.0 mg/kg/injection, schedule: Q01DX009 (ip), vehicle: saline 119 % of control | [4] 107 % of control | dose: 300.0 mg/kg/injection, schedule: Q01DX009 (ip), vehicle: saline 101 % of control

Cc1cc[n+]2cc3c(ccc4ccccc43)c(C)c2c1
inactive: dose: 2.0 mg/kg/injection, schedule: Q01DX015 (ip), vehicle: carboxymethylcellulose (CMC) 103 % of control | dose: 4.0 mg/kg/injection, schedule: Q01DX015 (ip), vehicle: carboxymethylcellulose (CMC) 124 % of control | dose: 8.0 mg/kg/injection, schedule: Q01DX015 (ip), vehicle: carboxymethylcellulose (CMC) 117 % of control | dose: 16.0 mg/kg/injection, schedule: Q01DX015 (ip), vehicle: carboxymethylcellulose (CMC) 98 % of control | dose: 25.0 mg/kg/injection, schedule: Q01DX001 (ip), vehicle: carboxymethylcellulose (CMC) 107 % of control

ClCc1ccc(CCl)cc1
inactive: dose: 56.25 mg/kg/injection, schedule: Q01DX009 (ip), vehicle: Klucel (hydroxypropylcellulose) (HPC) 101 % of control | dose: 112.5 mg/kg/injection, schedule: Q01DX009 (ip), vehicle: Klucel (hydroxypropylcellulose) (HPC) 98 % of control | dose: 150.0 mg/kg/injection, schedule: Q04DX003 (ip), vehicle: Klucel (hydroxypropylcellulose) (HPC) 105 % of control | dose: 225.0 mg/kg/injection, schedule: Q01DX009 (ip), vehicle: Klucel (hydroxypropylcellulose) (HPC) 87 % of control | dose: 225.0 mg/kg/injection, schedule: Q04DX003 (ip), vehicle: Klucel (hydroxypropylcellulose) (HPC) 97 % of control

CCCCCCN1C(=O)c2ccccc2S1(=O)=O
inactive: dose: 222.0 mg/kg/injection, schedule: Q01DX Z (ip), vehicle: methylcellulose (MC) 101 % of control | dose: 333.0 mg/kg/injection, schedule: Q01DX Z (ip), vehicle: methylcellulose (MC) 113 % of control | dose: 500.0 mg/kg/injection, schedule: Q01DX Z (ip), vehicle: methylcellulose (MC) 100 % of control

O=C(Nc1ccccn1)c1ccccc1
inactive: dose: 100.0 mg/kg/injection, schedule: Q04DX002 (ip), vehicle: saline with Tween-80 99 % of control

ONc1ncnc2nc[nH]c12
inactive: dose: 7.5 mg/kg/injection, schedule: Q01DX009 (ip), vehicle: Klucel (hydroxypropylcellulose) (HPC) 121 % of control | dose: 15.0 mg/kg/injection, schedule: Q01DX009 (ip), vehicle: Klucel (hydroxypropylcellulose) (HPC) 119 % of control | dose: 30.0 mg/kg/injection, schedule: Q01DX009 (ip), vehicle: Klucel (hydroxypropylcellulose) (HPC) 117 % of control | [1] 114 % of control | dose: 60.0 mg/kg/injection, schedule: Q01DX009 (ip), vehicle: Klucel (hydroxypropylcellulose) (HPC) 121 % of control | [3] 110 % of control | [4] 112 % of control | dose: 200.0 mg/kg/injection, schedule: Q01DX009 (ip), vehicle: saline 114 % of control | dose: 400.0 mg/kg/injection, schedule: Q01DX001 (ip), vehicle: saline 114 % of control

COc1ccccc1NC(=O)c1ccc(Cl)cc1Cl
inactive: dose: 100.0 mg/kg/injection, schedule: Q01DX009 (ip), vehicle: Klucel (hydroxypropylcellulose) (HPC) 98 % of control | dose: 100.0 mg/kg/injection, schedule: Q04DX003 (ip), vehicle: Klucel (hydroxypropylcellulose) (HPC) 100 % of control | dose: 200.0 mg/kg/injection, schedule: Q01DX009 (ip), vehicle: Klucel (hydroxypropylcellulose) (HPC) 93 % of control | dose: 200.0 mg/kg/injection, schedule: Q04DX003 (ip), vehicle: Klucel (hydroxypropylcellulose) (HPC) 96 % of control | dose: 400.0 mg/kg/injection, schedule: Q01DX009 (ip), vehicle: Klucel (hydroxypropylcellulose) (HPC) 93 % of control | dose: 400.0 mg/kg/injection, schedule: Q04DX003 (ip), vehicle: Klucel (hydroxypropylcellulose) (HPC) 97 % of control

CNC(=Nc1ccc(NC(=O)c2ccc(C(=O)Nc3ccc(N=C(NC)c4ccccc4)cc3)cc2)cc1)c1ccccc1
inactive: dose: 3.75 mg/kg/injection, schedule: Q01DX Z (ip), vehicle: saline 106 % of control | dose: 7.5 mg/kg/injection, schedule: Q01DX Z (ip), vehicle: saline 100 % of control | dose: 15.0 mg/kg/injection, schedule: Q01DX Z (ip), vehicle: other 91 % of control | dose: 15.0 mg/kg/injection, schedule: Q01DX Z (ip), vehicle: saline 105 % of control
